Inconclusive results and toxic doses are left out. No stated cut-off is given here; in the data, active means T/C of 150% or more; inactive means T/C below 125%.
Tested on: L1210 leukemia ip in BDF1 mice, survival T/C
Assay: NCI In Vivo Anticancer Drug Screen. Data for tumor model L1210 Leukemia (intraperitoneal) in B6D2F1 (BDF1) mice
Conditions: endpoint: mean survival time, higher = longer survival
In short: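 Ratio derived from survival: compound-dosed mice over vehicle-dosed mice, all bearing a transplantable tumor.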

[1] = dose: 100.0 mg/kg/injection, schedule: Q01DX001 (ip), vehicle: carboxymethylcellulose (CMC)
[2] = dose: 400.0 mg/kg/injection, schedule: Q01DX001 (ip), vehicle: carboxymethylcellulose (CMC)
[3] = dose: 100.0 mg/kg/injection, schedule: Q04DX003 (ip), vehicle: saline
[4] = dose: 200.0 mg/kg/injection, schedule: Q04DX003 (ip), vehicle: saline
[5] = dose: 100.0 mg/kg/injection, schedule: Q01DX001 (ip), vehicle: saline
[6] = dose: 200.0 mg/kg/injection, schedule: Q01DX001 (ip), vehicle: saline
[7] = dose: 400.0 mg/kg/injection, schedule: Q01DX001 (ip), vehicle: saline
[8] = dose: 100.0 mg/kg/injection, schedule: Q01DX009 (ip), vehicle: saline with Tween-80
[9] = dose: 200.0 mg/kg/injection, schedule: Q01DX009 (ip), vehicle: saline with Tween-80

Measured: T/C

CNc1ncnc2c1cnn2C
inactive: dose: 5.0 mg/kg/injection, schedule: Q01DX015 (ip), vehicle: carboxymethylcellulose (CMC) 88 % of control | dose: 10.0 mg/kg/injection, schedule: Q01DX015 (ip), vehicle: carboxymethylcellulose (CMC) 97 % of control | dose: 20.0 mg/kg/injection, schedule: Q01DX015 (ip), vehicle: carboxymethylcellulose (CMC) 100 % of control | dose: 40.0 mg/kg/injection, schedule: Q01DX015 (ip), vehicle: carboxymethylcellulose (CMC) 93 % of control | dose: 80.0 mg/kg/injection, schedule: Q01DX015 (ip), vehicle: carboxymethylcellulose (CMC) 105 % of control | [1] 101 % of control | dose: 200.0 mg/kg/injection, schedule: Q01DX001 (ip), vehicle: carboxymethylcellulose (CMC) 103 % of control | [2] 106 % of control

CCCC(=O)OC1=CC(=O)c2ccccc2C1=O
inactive: dose: 75.0 mg/kg/injection, schedule: Q01DX001 (ip), vehicle: other 94 % of control | dose: 150.0 mg/kg/injection, schedule: Q01DX001 (ip), vehicle: other 89 % of control

Cc1ccc(C2=CCCCC2)cc1
inactive: dose: 50.0 mg/kg/injection, schedule: Q01DX001 (ip), vehicle: carboxymethylcellulose (CMC) 96 % of control | [1] 96 % of control | [2] 94 % of control

C[C@@]1(O)CCCC[C@H]1O
inactive: dose: 100.0 mg/kg/injection, schedule: Q01DX009 (ip), vehicle: saline 95 % of control | [3] 106 % of control | dose: 200.0 mg/kg/injection, schedule: Q01DX009 (ip), vehicle: saline 105 % of control | [4] 103 % of control | dose: 400.0 mg/kg/injection, schedule: Q01DX009 (ip), vehicle: saline 96 % of control | dose: 400.0 mg/kg/injection, schedule: Q04DX003 (ip), vehicle: saline 92 % of control

Cn1c(N)c(N=Nc2ccc(S(N)(=O)=O)cc2)c(=O)n(C)c1=O
inactive: [5] 94 % of control | [6] 102 % of control | [7] 96 % of control

O=C(Nc1ccc(Cl)cc1C(F)(F)F)Oc1ccc(Cl)cc1Br
inactive: dose: 50.0 mg/kg/injection, schedule: Q01DX009 (ip), vehicle: saline with Tween-80 98 % of control | [8] 103 % of control | [9] 103 % of control

CCCCCCC(=O)/C=C/c1cccc(Cl)c1
inactive: [8] 88 % of control | [9] 88 % of control | dose: 400.0 mg/kg/injection, schedule: Q01DX009 (ip), vehicle: saline with Tween-80 95 % of control

CCC(C)COS(=O)(=O)c1ccc(C)cc1 (stereo not drawn)
inactive: dose: 100.0 mg/kg/injection, schedule: Q04DX002 (ip), vehicle: saline with Tween-80 103 % of control | dose: 200.0 mg/kg/injection, schedule: Q04DX002 (ip), vehicle: saline with Tween-80 103 % of control | dose: 400.0 mg/kg/injection, schedule: Q04DX002 (ip), vehicle: saline with Tween-80 100 % of control

CN(C)C1CCc2ccc3ccccc3c2C1=O (stereo not drawn)
inactive: dose: 50.0 mg/kg/injection, schedule: Q01DX009 (ip), vehicle: saline 88 % of control

N#CSCCN1C(=O)C2C3CCC(O3)C2C1=O (stereo not drawn)
inactive: dose: 6.25 mg/kg/injection, schedule: Q04DX002 (ip), vehicle: saline with Tween-80 94 % of control | dose: 12.5 mg/kg/injection, schedule: Q04DX002 (ip), vehicle: saline with Tween-80 97 % of control

Oc1c(Cl)cc(Cl)cc1/C=C1\C=Nc2ccccc21
inactive: dose: 100.0 mg/kg/injection, schedule: Q04DX002 (ip), vehicle: saline 97 % of control | dose: 200.0 mg/kg/injection, schedule: Q04DX002 (ip), vehicle: saline 94 % of control | dose: 400.0 mg/kg/injection, schedule: Q04DX002 (ip), vehicle: saline 102 % of control

N#CC(c1cnc2ccccc2n1)c1cccc2ccccc12 (stereo not drawn)
inactive: [5] 94 % of control | [6] 92 % of control | [7] 97 % of control

c1ccc2nc(OCCN3CC3)ccc2c1
inactive: [1] 108 % of control

O=C(CC1CCCCN1)CC1CCCCN1 (stereo not drawn)
inactive: [3] 92 % of control | [4] 101 % of control
